System: MV-4-11 cells
Assay: Gene expression microarray analysis (Affymetrix PrimeView) and GSEA
Assay type: cell-based, human
Set-up: RFU PODN (11730768_x_at) / Fold change /veh PODN (11730768_x_at) / RFU LINC00158 (11744669_a_at) / Fold change /veh LINC00158 (11744669_a_at) / RFU DUSP10 (11751237_a_at) / Fold change /veh DUSP10 (11751237_a_at) / RFU ID3 (11757404_x_at) / Fold change /veh ID3 (11757404_x_at) / RFU PLEKHG5 (11737974_s_at) / Fold change /veh PLEKHG5 (11737974_s_at) / RFU LRRC4B (11730491_at) / Fold change /veh LRRC4B (11730491_at) / RFU GIMAP4 (11747438_a_at) / Fold change /veh GIMAP4 (11747438_a_at) / RFU KRT8 (11758183_x_at) / Fold change /veh KRT8 (11758183_x_at) / RFU CNN1 (11734310_a_at) / Fold change /veh CNN1 (11734310_a_at) / RFU VPS37D (11726825_at) / Fold change /veh VPS37D (11726825_at) / RFU C10orf10 (11716522_x_at) / Fold change /veh C10orf10 (11716522_x_at) / RFU KIR2DL2 /// KIR2DL4 /// KIR2DL5A /// KIR2DL5B /// KIR2DS1 /// KIR2DS2 /// KIR2DS3 /// KIR2DS4 /// KIR3DL3 /// KIR3DL3 /// KIR3DS1 (11738374_at) / Fold change /veh KIR2DL2 /// KIR2DL4 /// KIR2DL5A /// KIR2DL5B /// KIR2DS1 /// KIR2DS2 /// KIR2DS3 /// KIR2DS4 /// KIR3DL3 /// KIR3DL3 /// KIR3DS1 (11738374_at) / RFU C1QL1 (11718748_at) / Fold change /veh C1QL1 (11718748_at) / RFU TMPRSS4 (11747572_a_at) / Fold change /veh TMPRSS4 (11747572_a_at) / RFU HAMP (11756126_x_at) / Fold change /veh HAMP (11756126_x_at) / RFU RNFT2 (11725882_a_at) / Fold change /veh RNFT2 (11725882_a_at) / RFU NR4A2 (11747474_a_at) / Fold change /veh NR4A2 (11747474_a_at) / RFU ABCC12 (11746883_a_at) / Fold change /veh ABCC12 (11746883_a_at) / RFU TMEM136 (11760407_x_at) / Fold change /veh TMEM136 (11760407_x_at) / RFU CLDN22 /// WWC2 (11732394_at) / Fold change /veh CLDN22 /// WWC2 (11732394_at) / RFU HLA-DPB1 (11760878_x_at) / Fold change /veh HLA-DPB1 (11760878_x_at) / RFU SPINT1 (11716480_a_at) / Fold change /veh SPINT1 (11716480_a_at) / RFU GAP43 (11754022_s_at) / Fold change /veh GAP43 (11754022_s_at) / RFU A4GNT (11735810_at) / Fold change /veh A4GNT (11735810_at) / RFU PRB3 (11715151_x_at) / Fold change /veh PRB3 (11715151_x_at) / RFU TUBB4B (11761932_at) / Fold change /veh TUBB4B (11761932_at) / RFU CAPN14 (11732068_a_at) / Fold change /veh CAPN14 (11732068_a_at) / RFU TMCC2 (11721928_a_at) / Fold change /veh TMCC2 (11721928_a_at) / RFU IRGQ (11745062_a_at) / Fold change /veh IRGQ (11745062_a_at) / RFU FAM174B (11720279_a_at) / Fold change /veh FAM174B (11720279_a_at) / RFU TMPRSS4 (11748680_a_at) / Fold change /veh TMPRSS4 (11748680_a_at) / RFU FAM212B (11763350_a_at) / Fold change /veh FAM212B (11763350_a_at) / RFU PLEKHG5 (11743358_a_at) / Fold change /veh PLEKHG5 (11743358_a_at) / RFU ZSCAN30 (11745921_a_at) / Fold change /veh ZSCAN30 (11745921_a_at) / RFU CMKLR1 (11741424_a_at) / Fold change /veh CMKLR1 (11741424_a_at) / RFU LOC101060620 /// MAPK8IP1 (11723275_at) / Fold change /veh LOC101060620 /// MAPK8IP1 (11723275_at) / RFU SPTSSB (11747773_x_at) / Fold change /veh SPTSSB (11747773_x_at) / RFU PRSS12 (11739890_at) / Fold change /veh PRSS12 (11739890_at) / RFU BIN1 (11741810_x_at) / Fold change /veh BIN1 (11741810_x_at) / RFU WNT11 (11732464_a_at) / Fold change /veh WNT11 (11732464_a_at) / RFU C10orf10 (11716521_a_at) / Fold change /veh C10orf10 (11716521_a_at) / RFU C5orf56 (11738089_at) / Fold change /veh C5orf56 (11738089_at) / RFU CYB561 (11721691_x_at) / Fold change /veh CYB561 (11721691_x_at) / RFU ANKRD19P (11752326_a_at) / Fold change /veh ANKRD19P (11752326_a_at) / RFU OR2T12 /// OR2T33 /// OR2T8 (11738714_s_at) / Fold change /veh OR2T12 /// OR2T33 /// OR2T8 (11738714_s_at) / RFU VCAN (11748164_a_at) / Fold change /veh VCAN (11748164_a_at) / RFU JSRP1 (11732532_at) / Fold change /veh JSRP1 (11732532_at) / RFU KRTAP10-11 (11738290_x_at) / Fold change /veh KRTAP10-11 (11738290_x_at) / RFU MYO3A (11730013_a_at) / Fold change /veh MYO3A (11730013_a_at) / RFU EBF3 (11725865_a_at) / Fold change /veh EBF3 (11725865_a_at) / RFU CAMK2N1 (11719241_x_at) / Fold change /veh CAMK2N1 (11719241_x_at) / RFU C5orf56 (11738088_a_at) / Fold change /veh C5orf56 (11738088_a_at) / RFU OLFML3 (11715873_a_at) / Fold change /veh OLFML3 (11715873_a_at) / RFU LOC100653217 /// NTM (11731650_a_at) / Fold change /veh LOC100653217 /// NTM (11731650_a_at) / RFU MAPK11 (11762145_a_at) / Fold change /veh MAPK11 (11762145_a_at) / RFU FIZ1 (11724087_x_at) / Fold change /veh FIZ1 (11724087_x_at) / RFU OASL (11726364_x_at) / Fold change /veh OASL (11726364_x_at) / RFU SOX15 (11748057_x_at) / Fold change /veh SOX15 (11748057_x_at) / RFU CD79A (11719716_a_at) / Fold change /veh CD79A (11719716_a_at) / RFU HIST1H1D (11736915_at) / Fold change /veh HIST1H1D (11736915_at) / RFU CASKIN2 (11723855_a_at) / Fold change /veh CASKIN2 (11723855_a_at) / RFU LOC730098 (11760151_x_at) / Fold change /veh LOC730098 (11760151_x_at) / RFU OR4N2 (11742367_at) / Fold change /veh OR4N2 (11742367_at) / RFU PRRT2 (11749266_a_at) / Fold change /veh PRRT2 (11749266_a_at) / RFU SNX32 (11753110_a_at) / Fold change /veh SNX32 (11753110_a_at) / RFU CDHR5 (11726645_a_at) / Fold change /veh CDHR5 (11726645_a_at) / RFU RCAN1 (11760418_a_at) / Fold change /veh RCAN1 (11760418_a_at) / RFU FAM167A (11723789_a_at) / Fold change /veh FAM167A (11723789_a_at) / RFU FAM26E (11764081_at) / Fold change /veh FAM26E (11764081_at) / RFU ISYNA1 (11749810_s_at) / Fold change /veh ISYNA1 (11749810_s_at) / RFU ACY1 (11761880_at) / Fold change /veh ACY1 (11761880_at) / RFU 11764098_at / Fold change /veh 11764098_at / RFU SAMD14 (11745864_x_at) / Fold change /veh SAMD14 (11745864_x_at) / RFU NPB (11741838_a_at) / Fold change /veh NPB (11741838_a_at) / RFU TMPRSS6 (11731388_a_at) / Fold change /veh TMPRSS6 (11731388_a_at) / RFU KRTAP10-2 (11738614_at) / Fold change /veh KRTAP10-2 (11738614_at) / RFU ARHGAP8 /// PRR5-ARHGAP8 (11727945_x_at) / Fold change /veh ARHGAP8 /// PRR5-ARHGAP8 (11727945_x_at) / RFU KRTAP5-7 /// NADSYN1 (11734609_at) / Fold change /veh KRTAP5-7 /// NADSYN1 (11734609_at) / RFU RASL12 (11751679_a_at) / Fold change /veh RASL12 (11751679_a_at) / RFU CDKN2B (11736163_a_at) / Fold change /veh CDKN2B (11736163_a_at) / RFU PRF1 (11729649_at) / Fold change /veh PRF1 (11729649_at) / RFU, ZNF638 /// ZNF638-IT1 / Fold change vs veh, ZNF638 /// ZNF638-IT1 / RFU, PANK3 / Fold change vs veh, PANK3 / RFU, SH3YL1 / Fold change vs veh, SH3YL1 / RFU, ZEB2 / Fold change vs veh, ZEB2 / RFU, NRIP1 / Fold change vs veh, NRIP1 / RFU, PTTG1IP / Fold change vs veh, PTTG1IP / RFU, CAPN2 / Fold change vs veh, CAPN2 / RFU, MED14 / Fold change vs veh, MED14 / RFU, SNORA58 / Fold change vs veh, SNORA58 / RFU, C1orf63 / Fold change vs veh, C1orf63 / RFU, LRRFIP1 / Fold change vs veh, LRRFIP1 / RFU, NDUFAF7 / Fold change vs veh, NDUFAF7 / RFU, SLC12A2 / Fold change vs veh, SLC12A2 / RFU, IBTK / Fold change vs veh, IBTK / RFU, ESF1 / Fold change vs veh, ESF1 / Fold change vs veh, TMEM50B / RFU, TAOK1 / Fold change vs veh, TAOK1 / RFU, ACBD3 / Fold change vs veh, ACBD3 / RFU, TMA16 / Fold change vs veh, TMA16 / RFU, RWDD3 / Fold change vs veh, RWDD3 / RFU, BCAT1 / Fold change vs veh, BCAT1 / RFU, EDEM3 / Fold change vs veh, EDEM3 / RFU, TMEM33 / Fold change vs veh, TMEM33 / RFU, WDR75 / Fold change vs veh, WDR75 / RFU, AHCTF1 / Fold change vs veh, AHCTF1 / RFU, TFRC / Fold change vs veh, TFRC / RFU, ZDHHC17 / Fold change vs veh, ZDHHC17 / RFU, NOM1 / Fold change vs veh, NOM1 / RFU, ARL8B / Fold change vs veh, ARL8B / RFU, ZBTB11 / Fold change vs veh, ZBTB11 / RFU, TAMM41 / Fold change vs veh, TAMM41 / RFU, KIAA1704 /// LOC100996395 / Fold change vs veh, KIAA1704 /// LOC100996395 / RFU, ING1 / Fold change vs veh, ING1 / RFU, TRMT61B / Fold change vs veh, TRMT61B / RFU, FUBP3 / Fold change vs veh, FUBP3 / RFU, TP53 / Fold change vs veh, TP53 / RFU, TNKS2 / Fold change vs veh, TNKS2 / RFU, ZFP14 / Fold change vs veh, ZFP14 / RFU, ACTR2 / Fold change vs veh, ACTR2 / RFU, PPP3R1 / Fold change vs veh, PPP3R1 / RFU, PIK3R1 / Fold change vs veh, PIK3R1 / RFU, HNRNPA1 / Fold change vs veh, HNRNPA1 / RFU, RNF170 / Fold change vs veh, RNF170 / RFU, ZNF28 / Fold change vs veh, ZNF28 / RFU, RNGTT / Fold change vs veh, RNGTT / RFU, OGT / Fold change vs veh, OGT / RFU, BRD1 / Fold change vs veh, BRD1 / RFU, MARS / Fold change vs veh, MARS / RFU, ZNF655 / Fold change vs veh, ZNF655 / RFU, FAHD1 / Fold change vs veh, FAHD1 / RFU, BDP1 / Fold change vs veh, BDP1 / RFU, LRRCC1 / Fold change vs veh, LRRCC1 / RFU, ARID1A / Fold change vs veh, ARID1A / RFU, ZNF146 / Fold change vs veh, ZNF146 / RFU, ZNF330 / Fold change vs veh, ZNF330 / RFU, GPN3 / Fold change vs veh, GPN3 / RFU, C9orf123 / Fold change vs veh, C9orf123 / RFU, N4BP2L2 / Fold change vs veh, N4BP2L2 / RFU, ARFIP1 / Fold change vs veh, ARFIP1 / RFU, FAM179B / Fold change vs veh, FAM179B / RFU, BCL10 / Fold change vs veh, BCL10 / RFU, UHRF1BP1L / Fold change vs veh, UHRF1BP1L / RFU, BET1 / Fold change vs veh, BET1 / RFU, CNOT2 / Fold change vs veh, CNOT2 / RFU, ZNF268 / Fold change vs veh, ZNF268 / Fold change vs veh, ZNF507 / RFU, DGCR2 / Fold change vs veh, DGCR2 / RFU, WDSUB1 / Fold change vs veh, WDSUB1 / Fold change vs veh, HSP90B1 /// MIR3652 / RFU, ADSS / Fold change vs veh, ADSS / RFU, GK / Fold change vs veh, GK / RFU, ZNF148 / Fold change vs veh, ZNF148 / RFU, TAF9 / Fold change vs veh, TAF9 / RFU, SLC1A5 / Fold change vs veh, SLC1A5 / RFU, SLMO2 / Fold change vs veh, SLMO2 / RFU, ABCC4 / Fold change vs veh, ABCC4 / RFU, LOC101060439 /// RAP1B / Fold change vs veh, LOC101060439 /// RAP1B / RFU, RFX7 / Fold change vs veh, RFX7 / RFU, GTPBP10 / Fold change vs veh, GTPBP10 / RFU, CNEP1R1 / Fold change vs veh, CNEP1R1 / RFU, BIVM-ERCC5 /// ERCC5 / Fold change vs veh, BIVM-ERCC5 /// ERCC5 / RFU, ILF3 / Fold change vs veh, ILF3 / RFU 11762660_at / Fold change /veh 11762660_at / RFU VCAN (11757783_s_at) / Fold change /veh VCAN (11757783_s_at) / RFU DDX43 (11728927_at) / Fold change /veh DDX43 (11728927_at) / RFU KRT8 (11758188_x_at) / Fold change /veh KRT8 (11758188_x_at) / RFU NKD1 (11759106_at) / Fold change /veh NKD1 (11759106_at) / RFU SRD5A1 (11742802_a_at) / Fold change /veh SRD5A1 (11742802_a_at) / RFU TPSAB1 /// TPSB2 (11721975_s_at) / Fold change /veh TPSAB1 /// TPSB2 (11721975_s_at) / RFU GSTM3 (11746129_a_at) / Fold change /veh GSTM3 (11746129_a_at) / RFU IL23R (11737362_x_at) / Fold change /veh IL23R (11737362_x_at) / RFU TMEM51 (11727254_a_at) / Fold change /veh TMEM51 (11727254_a_at) / RFU PIWIL2 (11732686_x_at) / Fold change /veh PIWIL2 (11732686_x_at) / RFU ORM1 (11744905_x_at) / Fold change /veh ORM1 (11744905_x_at) / RFU CCDC152 (11743942_at) / Fold change /veh CCDC152 (11743942_at) / RFU ECM1 (11717891_a_at) / Fold change /veh ECM1 (11717891_a_at) / RFU IL23R (11748794_a_at) / Fold change /veh IL23R (11748794_a_at) / RFU TNFAIP8L3 (11732012_x_at) / Fold change /veh TNFAIP8L3 (11732012_x_at) / RFU MBOAT4 (11741988_at) / Fold change /veh MBOAT4 (11741988_at) / RFU 11764193_at / Fold change /veh 11764193_at / RFU TMEM53 (11763286_at) / Fold change /veh TMEM53 (11763286_at) / RFU MAGEB2 (11727129_at) / Fold change /veh MAGEB2 (11727129_at) / RFU TMEM200A (11744735_a_at) / Fold change /veh TMEM200A (11744735_a_at) / RFU CCDC152 (11751479_a_at) / Fold change /veh CCDC152 (11751479_a_at) / RFU FAM211A (11726209_a_at) / Fold change /veh FAM211A (11726209_a_at) / RFU RGS16 (11746705_a_at) / Fold change /veh RGS16 (11746705_a_at) / RFU VCAN (11755009_s_at) / Fold change /veh VCAN (11755009_s_at) / RFU RHOB (11743442_s_at) / Fold change /veh RHOB (11743442_s_at) / RFU RGS16 (11720943_a_at) / Fold change /veh RGS16 (11720943_a_at) / RFU RGS16 (11720944_at) / Fold change /veh RGS16 (11720944_at) / RFU, VPS4B / Fold change vs veh, VPS4B / RFU, CREB1 / Fold change vs veh, CREB1 / RFU, DNAJC13 / Fold change vs veh, DNAJC13 / RFU, GNAQ / Fold change vs veh, GNAQ / RFU, CDK5R1 / Fold change vs veh, CDK5R1 / RFU, ZRANB3 / Fold change vs veh, ZRANB3 / RFU, CUL4A / Fold change vs veh, CUL4A / RFU, CCNY / Fold change vs veh, CCNY / RFU, UFL1 / Fold change vs veh, UFL1 / RFU, COG3 / Fold change vs veh, COG3 / RFU, DIAPH2 / Fold change vs veh, DIAPH2 / RFU, SKA2 / Fold change vs veh, SKA2 / RFU, AFF3 / Fold change vs veh, AFF3 / RFU, LMF1 / Fold change vs veh, LMF1 / RFU, IPO11 / Fold change vs veh, IPO11 / RFU, DFFB / Fold change vs veh, DFFB / RFU, FOXP1 / Fold change vs veh, FOXP1 / RFU, CARD8 / Fold change vs veh, CARD8 / RFU, STRN3 / Fold change vs veh, STRN3 / RFU, ADK / Fold change vs veh, ADK / RFU, RASSF2 / Fold change vs veh, RASSF2 / RFU, WIPF1 / Fold change vs veh, WIPF1 / RFU, LARP1B / Fold change vs veh, LARP1B / RFU, RASA1 / Fold change vs veh, RASA1 / RFU, RB1 / Fold change vs veh, RB1 / RFU, PPFIA1 / Fold change vs veh, PPFIA1 / RFU, MAT2A / Fold change vs veh, MAT2A / RFU, CCT5 / Fold change vs veh, CCT5 / RFU, WDR92 / Fold change vs veh, WDR92 / RFU, CUX1 / Fold change vs veh, CUX1 / RFU, TTC7A / Fold change vs veh, TTC7A / RFU, TMEM135 / Fold change vs veh, TMEM135 / RFU, DEPTOR / Fold change vs veh, DEPTOR / RFU, CPM / Fold change vs veh, CPM / RFU, DNAJB6 / Fold change vs veh, DNAJB6 / RFU, CACNA2D3 / Fold change vs veh, CACNA2D3 / RFU, DTX4 / Fold change vs veh, DTX4 / RFU, TFCP2 / Fold change vs veh, TFCP2 / RFU, GMCL1 /// GMCL1P1 / Fold change vs veh, GMCL1 /// GMCL1P1 / RFU, AEBP2 / Fold change vs veh, AEBP2 / RFU, SNHG1 /// SNORD22 /// SNORD25 /// SNORD26 /// SNORD27 /// SNORD28 /// SNORD29 /// SNORD31 / Fold change vs veh, SNHG1 /// SNORD22 /// SNORD25 /// SNORD26 /// SNORD27 /// SNORD28 /// SNORD29 /// SNORD31 / Fold change (Aza/veh), C12orf56 (ProbeSet 11735607_a_at) / Fold change (ACY-1035/veh), C12orf56 (ProbeSet 11735607_a_at) / Fold change (Aza/veh), FGFR1OP (ProbeSet 11751329_s_at) / Fold change (ACY-1035/veh), FGFR1OP (ProbeSet 11751329_s_at) / Fold change (Aza/veh), VPS36 (ProbeSet 11739960_a_at) / Fold change (ACY-1035/veh), VPS36 (ProbeSet 11739960_a_at) / RFU SYPL1 (11715823_x_at) / Fold change /veh SYPL1 (11715823_x_at) / RFU IGFBP7 (11715501_s_at) / Fold change /veh IGFBP7 (11715501_s_at) / RFU REEP3 (11722064_at) / Fold change /veh REEP3 (11722064_at) / RFU IGLL1 (11728026_x_at) / Fold change /veh IGLL1 (11728026_x_at): dose or concentration left out as unconfirmed
Details: MV-4-11 cells, 48 hours

Nc1ncn([C@@H]2O[C@H](CO)[C@@H](O)[C@H]2O)c(=O)n1 [azacitidine]
Fold change /veh SNX32 (11753110_a_at): 1.11
